The source of these data is PMC7115544 (European Journal of Medicinal Chemistry, 2010).

Like-named read-outs stand apart in the source and are kept apart here.

One series in a line: in vitro. To be noted: dog.
The subject of series [1] is MDCK cells. In words: Cytotoxicity in MDCK cell cultures. It counts as cell-based, canine.
In a further series the test system is Reovirus-1. In words: organism not typed. The series is classed as cell-based. To be noted: Vero, read-out: EC50 Reovirus-1.
The subject of the next series is HeLa cell cultures. Conditions: human.
Another series concerns Para influenza-3 virus. Put plainly: organism not typed. The series is classed as cell-based. To be noted: Vero, read-out: EC50 Para influenza-3 virus.
A further series relates to HEL cell cultures. To be noted: human.
A further series has as its system Feline Herpes Virus. Put plainly: Anti-Feline Herpes Virus activity in CRFK cell cultures. It counts as cell-based. To be noted: for EC50: CRFK, read-out: EC50 Feline Herpes Virus.
For a further series, the system named is Vero cell cultures. To be noted: African green monkey.
The subject of the next series is Vaccinia virus. Put plainly: microbe, parasite or virus in culture. It counts as cell-based. Conditions: Orthopoxvirus vaccinia, HEL, read-out: EC50 Vaccinia virus.
For series [2], the system named is Herpes simplex virus-2 (G). In words: microbe, parasite or virus in culture. It counts as cell-based.
The test system of series [3] is Herpes simplex virus-1 (KOS). Put plainly: microbe, parasite or virus in culture. It counts as cell-based.
A further series deals with Influenza B. In words: microbe, parasite or virus in culture. The series is classed as cell-based.
Series [4] concerns Herpes simplex virus-1 TK- KOS ACVr. The series is classed as cell-based.
For series [5], the system named is Vesicular stomatitis virus. Put plainly: microbe, parasite or virus in culture. The series is classed as cell-based. To be noted: HEL, read-out: EC50 Vesicular stomatitis virus.
In series [6] the test system is MDCK cells.
The test system of series [7] is Feline Corona Virus (FIPV). In words: Anti-Feline Corona Virus activity in CRFK cell cultures. The series is classed as cell-based. Conditions: MTS assay. On the technique in general: Tetrazolium assays rely on reduction of a dye to a coloured formazan, in cell work by metabolically active cells.
[8] abbreviates: microscopically detectable alteration of normal cell morphology.

By EC50 is commonly meant the midpoint of the concentration-response curve.

In the series “in vitro”, `NC12CC3CC(CC(C3)C1)C2` [Amantadin, reference compound] returned a CC50 of over 1000 µM. Besides, in the series with MDCK cells [1] (reference compounds), the “Cytotoxicity Minimum cytotoxic concentration” value is over 1000 µM.

For `O=c1c2ccccc2nc(-c2ccccc2)n1/N=C/c1ccc(O)cc1` [Compound 2g, 3-[(4-Hydroxy-benzylidine)-amino]-2-phenyl-3H-quinazolin-4one], the EC50 in the series on Reovirus-1, in the series with Para influenza-3 virus and with Feline Herpes Virus was over 20 µg/mL in each case. The Minimum cytotoxic concentration in the series on HeLa cell cultures, in the series with HEL cell cultures and with Vero cell cultures was 100 µg/mL throughout.

As for `Nc1ncnc2c1ncn2C[C@H](O)CO` [(S)-DHPA, reference compound], the EC50 with Reovirus-1 and in the series with Para influenza-3 virus was over 250 µM throughout.

The molecule `CC(N)C12CC3CC(CC(C3)C1)C2` (stereo not shown) [Rimantadin] had a CC50 in “in vitro” of 472 µM.

For the molecule `COc1ccc(/C=N/n2c(-c3ccccc3)nc3ccccc3c2=O)cc1O` [Compound 2k, 3-[(3-Hydroxy-4-methoxy-benzylidine)-amino]-2-phenyl-3H-quinazolin-4one], the half-maximal effective concentration (EC50) in the series with Reovirus-1, with Para influenza-3 virus and in the series on Feline Herpes Virus was over 20 µg/mL throughout. The Minimum cytotoxic concentration with HEL cell cultures and in the series on Vero cell cultures was 100 µg/mL each time.

With `NC(=O)c1ncn([C@@H]2O[C@H](CO)[C@@H](O)[C@H]2O)n1` [Ribavirin, reference compound], the EC50 in the series with Reovirus-1 was over 250 µM; in the series on Vaccinia virus it was over 250 µM; in series [2] (Human alphaherpesvirus 2, HEL, read-out: EC50 Herpes simplex virus-2 (G)), over 250 µM; in series [3] (Human alphaherpesvirus 1, HEL, read-out: EC50 Herpes simplex virus-1 (KOS)), over 250 µM; in the series with Influenza B (Influenza B virus, MDCK, read-out: Antiviral EC50 Influenza B Visual CPE score), 9 µM. Also, in the series on MDCK cells [1] (reference compounds), the “Cytotoxicity Minimum cytotoxic concentration” value was at least 100 µM.

In the case of `COc1ccccc1/C=N/n1c(-c2ccccc2)nc2ccccc2c1=O` [Compound 2l, 3-[(2-Methoxy-benzylidine)-amino]-2-phenyl-3H-quinazolin-4one], the EC50 is over 20 µg/mL in the series on Reovirus-1, over 20 µg/mL with Para influenza-3 virus and over 4 µg/mL in the series on Feline Herpes Virus. The Minimum cytotoxic concentration in the series on HEL cell cultures and with Vero cell cultures was 100 µg/mL in each case.

Consider `O=c1c2ccccc2nc(-c2ccccc2)n1/N=C/c1ccccc1` [Compound 2f, 3-(Benzylidine-amino)-2-phenyl-3H-quinazolin-4one], for which the EC50 in the series with Reovirus-1 was over 4 µg/mL; in the series with Para influenza-3 virus it was over 4 µg/mL; with Feline Herpes Virus, over 0.8 µg/mL.

With `O=c1c2ccccc2nc(-c2ccccc2)n1/N=C/c1ccc(Cl)cc1` [Compound 2j, 3-[(4-Chloro-benzylidine)-amino]-2-phenyl-3H-quinazolin-4one], the EC50 was over 4 µg/mL in the series on Reovirus-1, over 4 µg/mL in the series on Para influenza-3 virus and over 20 µg/mL in the series with Feline Herpes Virus. This molecule also had a Minimum cytotoxic concentration in the series with HEL cell cultures of 100 µg/mL.

Take `C/C(=N\n1c(-c2ccccc2)nc2ccccc2c1=O)c1ccc(O)cc1` [Compound 2i, 3-[1-(4-Hydroxy-phenyl)-ethylideneamino]-2-phenyl-3H-quinazolin-4one]: the EC50 in the series on Reovirus-1, in the series with Para influenza-3 virus and in the series with Feline Herpes Virus was over 100 µg/mL each time. Also, the Minimum cytotoxic concentration in the series on HeLa cell cultures, in the series on HEL cell cultures and in the series with Vero cell cultures was over 100 µg/mL in each case. Moreover, the “Cytotoxicity Minimum cytotoxic concentration” value with MDCK cells [1] (setting [8]) was over 100 µg/mL.

Take `O=c1c2ccccc2nc(-c2ccccc2)n1/N=C/c1ccccc1O` [Compound 2a, 3-[(2-Hydroxy-benzylidine)-amino]-2-phenyl-3H-quinazolin-4one]: the “selectivity index, herpes simplex virus-1 TK- KOS ACVr” value in [4] is on record as 100. In addition, the results for the EC50 in the series on Para influenza-3 virus and in the series with Feline Herpes Virus were over 20 µg/mL and over 4 µg/mL, respectively. Further, the “selectivity index, herpes simplex virus-2 (G)” value in series [2] worked out at 100. Further, the Minimum cytotoxic concentration in the series with HEL cell cultures and in the series on Vero cell cultures was 100 µg/mL throughout. In addition, the “selectivity index, herpes simplex virus-1 (KOS)” value in [3] is given as 100. Further, in the series on MDCK cells [1] (setting [8]), the “Cytotoxicity Minimum cytotoxic concentration” value is at least 0.8 µg/mL.

Take `COc1ccc(/C=N/n2c(-c3ccccc3)nc3ccccc3c2=O)cc1` [Compound 2c, 3-[(4-Methoxy-benzylidine)-amino]-2-phenyl-3H-quinazolin-4one]: the EC50 is over 20 µg/mL with Reovirus-1, over 20 µg/mL with Para influenza-3 virus and over 4 µg/mL in the series on Feline Herpes Virus. This molecule also came in with a Minimum cytotoxic concentration in the series on Vero cell cultures of 100 µg/mL.

Take `Nc1nc(O)c2ncn(COC(CO)CO)c2n1` [Ganciclovir, reference compound]: the EC50 with Vaccinia virus was over 100 µM; in series [5], over 100 µM; in the series with Feline Herpes Virus it was 0.8 µM. In addition, the Minimum cytotoxic concentration in the series on HEL cell cultures is over 100 µM.

On to `O=c1c2ccccc2nc(-c2ccccc2)n1/N=C/c1cccc([N+](=O)[O-])c1` [Compound 2b, 3-[(3-Nitro-benzylidine)-amino]-2-phenyl-3H-quinazolin-4one], for which the EC50 in the series on Reovirus-1, in the series with Para influenza-3 virus and with Feline Herpes Virus was over 4 µg/mL each time. Also, the Minimum cytotoxic concentration with HEL cell cultures is at least 20 µg/mL.

With Oseltamivir carboxylate, in the series with Influenza B (read-out: Antiviral EC50 Influenza B MTS, […], MTS assay, reference compounds), the EC50 is 1.5 µM. For the same molecule, the “Cytotoxicity Minimum cytotoxic concentration” value with MDCK cells [1] (reference compounds) was over 100 µM. The same molecule returned a CC50 with MDCK cells [6] of over 100 µM.

As for `C/C(=N\n1c(-c2ccccc2)nc2ccccc2c1=O)c1ccccc1` [Compound 2h, 2-Phenyl-3(1-phenyl-ethylideneamino)-3H-quinazolin-4one], the values for the EC50 in the series with Reovirus-1, in the series with Para influenza-3 virus and with Feline Herpes Virus were over 20 µg/mL, over 20 µg/mL and over 0.8 µg/mL, respectively. For the same molecule, the Minimum cytotoxic concentration is over 100 µg/mL with HeLa cell cultures, over 100 µg/mL in the series with HEL cell cultures and 100 µg/mL in the series on Vero cell cultures. In the series with MDCK cells [1] (setting [8]), the “Cytotoxicity Minimum cytotoxic concentration” value turned out to be 100 µg/mL.

B1: UDA: reference substance in Table 4, not defined in the text (protein, UniProt P11218 24-372, looked up)
Lectin/endochitinase 1: QRCGSQGGGGTCPALWCCSIWGWCGDSEPYCGRTCENKCWSGERSDHRCGAAVGNPPCGQDRCCSVHGWCGGGNDYCSGSKCQYRCSSSVRGPRVALSGNSTANSIGNVVVTEPLFDQMFSHRKDCPSQGFYSYHSFLVAAESFPAFGTIGDVATRKREVAAFLAHISQATSGERSDVENPHAWGLCHINTTTVTENDFCTSSDWPCAAGKKYSPRGPIQLTHNFNYGLAGQAIGEDLIQNPDLVEKDPIISFKTALWFWMSQHDNKPSCHDIVLNANSAANRIPNKGVIGNIISRAFGHDDFAVRSSSIGFYKRYCDMLGVSYGHDLKYWFDNTPSSEFQRIQMRVAA
On to B1, for which, in [7], the “EC50 Feline Corona Virus (FIPV)” value is 11.7 µg/mL. The “EC50 Feline Herpes Virus” value in the series on Feline Herpes Virus (CRFK cell cultures, MTS assay) is 53.1 µg/mL.
